The source of these data is patent US11512821B2, “Systems and method for evaluating ultraviolet-protection products” (ABICH INC., priority 2019, dated 2022).

The subject of one data set is THP-1 cells. The class given is cell-based. The settings on record: percent of living cells (PI negative), b192. The text has this: Cell vitality: The percent of living cells (PI negative) must be above 80% in all samples.
The test system of data set [1] is CD54 (Intercellular Adhesion Molecule). Particulars: for CD54 % compared to Negative Control (CN): THP-1, 24 h; for CD54 MFI: THP-1, 24 h at 37° C. The text has this:
(§1) The purpose of the test is to assess the absence of pro-sensitizing skin effects from finished products or raw materials intended for contact with the skin or mucous membranes, such as medical devices, cosmetics, toys or textiles. In the present study, we used a human monocytes cell line (THP-1) as prototypic blood-derived immunologically active cell. On these cells, we tested the expression of two costimulatory molecules, CD54 (Intercellular Adhesion Molecule) and CD86 (B7.2), using as a positive control Nickel sulphate, a well-known contact sensitizing agent. Nickel sulphate is able to cause in vivo allergic immune reactions (skin sensitization) and it is also been widely used to study in vitro immune response modulation. As silicone elastomer (Silicone 30A—example of medical grade silicone) was tested at two concentrations, against Nickel positive controls.
(§2) The increasing expression level of CD54 and CD86 on monocytes is a signal of activation of the immune response derived from the exposition to a potentially sensitizing contact antigen. The expression of co-stimulatory molecules on the dendritic cells means activation of the immunological response in terms of capability to present the antigen in the typical tissues (skin in this case), where, in vivo, the immune protective response is triggered.
(§3) The normative reference is OECD Guideline 442E, “In vitro Skin Sensitization; Human Cell Line Activation Test (hCLAT)”, which is hereby incorporated by reference in its entirety. The method differs from the OECD Guideline as the test is performed in a single experimental session instead of three independent tests. As positive control, Nickel Sulfate is used instead of DNCB. […] In addition, the acceptance criteria and choice of concentrations to be used in the final test have been optimized according to the laboratory's historical results over the past 10 years.
(§4) The test is carried out on a monocyte-like human line called THP-1. Cells are kept in RPMI containing 10% FCS and 2 mM glutamine.
(§5) The sample has been eluted in phosphate buffered saline (1 g/5 ml) for 24 hours at 37° C. The eluted sample was diluted in the cell culture medium at different concentrations for the preliminary cytotoxicity screening on the cells aimed to decide the best concentration to test it without cytotoxic effects on the monocytes, in order to avoid false results. Cell medium exposed to the same experimental conditions were used as a negative control.
(§6) Following the results of the preliminary assay, the eluted sample was diluted directly in the cell medium at the two different dilutions in order to obtain the desired final concentrations in contact with the THP-1 cells in vitro. The exposure has been carried out for 24 h at 37° C. with 5% CO2.
(§7) After the incubation with the tested substance and the controls, cells are collected, checked under the microscope for their viability by staining with Trypan Blue dye and counting in a cell counter chamber, washed in PBS and then marked with a fluoresceinated anti-Intercellular Adhesion Molecule (CD54) or B7.2 (CD86) antibody and in both cases with a propidium iodide (PI) solution to simultaneously measure the percentage of dead cells. To this aim, a PI working solution (1 ml PI stock solution (1 mg PI/ml water) in 20 ml PI buffer (1 g glucose/l PBS without Ca/Mg)) is added to […]. A gate is set on the negative cells in order to exclude the dead cells. Only viable cells are included for analyses of CD54 or CD86 expression. After washing, to eliminate the excess antibody, the MFI (Mean Fluorescence Intensity) linked to the cells is evaluated by means of a flux cytofluorimeter (FACS, Fluorescence Activated Cell Sorter, Becton Dickinson, Mountain View, Calif.). This value is proportional to the expression of co-stimulatory molecules.
(§8) The results are expressed in terms of MFI (Mean Fluorescence Intensity).

Another data set has as its system CD86 (B7.2). The settings on record: for CD86 % compared to CN: THP-1, 24 h; for CD86 MFI: THP-1, 24 h at 37° C.
Description: as §1, §2, §3, §4, §5, §6, §7, §8

Read-outs that look alike come from different tables or passages of the source.

For the compound `O.O.O.O.O.O.O=S(=O)([O-])[O-].[Ni+2]` [Nickel Sulfate, Nickel Sulphate (NiSO4.6H2O)], the PI with THP-1 cells (4 μg/ml) is 88; in the data set on THP-1 cells (10 μg/ml), 86; with THP-1 cells (20 μg/ml) it was 86. For the same compound, the “CD54 % compared to Negative Control (CN)” value in data set [1] (4 μg/ml) is reported as 35.74%; in data set [1] (10 μg/ml), 63.61%; in data set [1] (20 μg/ml) it was 163.94%. Also, the “CD54 MFI” value in data set [1] (4 μg/ml) is recorded as 33.65; in data set [1] (10 μg/ml) it was 40.56; in data set [1] (20 μg/ml), 65.43. The “CD86 % compared to CN” value in the data set with CD86 (B7.2) (4 μg/ml) is listed as 27.95%; in the data set on CD86 (B7.2) (10 μg/ml) it was 146.23%; in the data set on CD86 (B7.2) (20 μg/ml) it was 399.03%. Moreover, the “CD86 MFI” value with CD86 (B7.2) (4 μg/ml) is listed as 26.32; in the data set on CD86 (B7.2) (10 μg/ml) it was 50.65; in the data set with CD86 (B7.2) (20 μg/ml), 102.65.
